Active and inactive are the calls of the source. The rule behind the calls is not given here.
Columns and labels:
[1] = test system: Musca domestica; assay: Insecticidal activity against WHO susceptible Musca domestica (house fly) assessed as compound level causing mortality per fly applied through topical application; type: functional
[2] = biological target: GABA-A receptor; anion channel; assay: Displacement of [35S]TBPS from gamma-aminobutyric acid type-A receptor in Rattus norvegicus (rat) brain membranes incubated for 90 min by liquid scintillation counting method; design: species or system Membrane
[3] = biological target: GABA-A receptor; anion channel (Rattus norvegicus) (UniProt O09028+P15431+P18506+P18508+P19969+P20236+P23574+P23576+P28471+P28473+P30191+P62813+P63079+P63138+Q91ZM7+Q9ES14); assay: Competitive inhibition of [35S]TBPS binding to gamma-aminobutyric acid type-A receptor in Rattus norvegicus (rat) brain membranes at 50 nM incubated for 90 min by Scatchard plot; conditions: Membrane

Structure (SMILES)	LD50 [1] [ng]	IC50 [2] [nM]	inhibition [3]
[O-][N+]1=N[C@@H]2C[C@H]1[C@H]1[C@@H]2[C@@]2(Cl)C(Cl)=C(Cl)[C@]1(Cl)C2(Cl)Cl (relative stereo)	3.1	119	
ClC1=C(Cl)[C@]2(Cl)[C@@H]3[C@@H]4CC[C@@H](C4)[C@@H]3[C@@]1(Cl)C2(Cl)Cl [REL-ALDRIN]	18.5	53.7	
ClC1=C(Cl)[C@]2(Cl)[C@H]3[C@H]([C@@H]4C[C@H]3N=N4)[C@@]1(Cl)C2(Cl)Cl	2.8	48.4	Active
